We go through 13 compounds from patent publication US20240092779A1, “USP1 INHIBITORS AND USES THEREOF” (Zentaur Therapeutics USA Inc., priority 2022, published 2024).

Series [1] concerns MDA-MB-436 cells. Briefly: CTG Protocol (MDA-MB-436 GI50), antiproliferative activity. The note with it: Homo sapiens, 168 h; MDA-MB-436 cells (BRCA1 mutation), 7-day incubation, CellTiter-Glo. The format is cell-based, human. The method, boiled down:
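BRCA1-mutant MDA-MB-436 cells were seeded at 1000 cells/well in DMEM, left overnight, then exposed to a 9-point, 3-fold compound series for 7 days at 37 °C, 5% CO2. Viability was read by CellTiter-Glo luminescence. % inhibition was plotted against concentration to derive GI50.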

Series [2] deals with T1, recombinant USP1/UAF1 enzyme complex (Homo sapiens, UniProt O94782).
T1 construct: purchased Biortus
T1 sequence (O94782 whole entry): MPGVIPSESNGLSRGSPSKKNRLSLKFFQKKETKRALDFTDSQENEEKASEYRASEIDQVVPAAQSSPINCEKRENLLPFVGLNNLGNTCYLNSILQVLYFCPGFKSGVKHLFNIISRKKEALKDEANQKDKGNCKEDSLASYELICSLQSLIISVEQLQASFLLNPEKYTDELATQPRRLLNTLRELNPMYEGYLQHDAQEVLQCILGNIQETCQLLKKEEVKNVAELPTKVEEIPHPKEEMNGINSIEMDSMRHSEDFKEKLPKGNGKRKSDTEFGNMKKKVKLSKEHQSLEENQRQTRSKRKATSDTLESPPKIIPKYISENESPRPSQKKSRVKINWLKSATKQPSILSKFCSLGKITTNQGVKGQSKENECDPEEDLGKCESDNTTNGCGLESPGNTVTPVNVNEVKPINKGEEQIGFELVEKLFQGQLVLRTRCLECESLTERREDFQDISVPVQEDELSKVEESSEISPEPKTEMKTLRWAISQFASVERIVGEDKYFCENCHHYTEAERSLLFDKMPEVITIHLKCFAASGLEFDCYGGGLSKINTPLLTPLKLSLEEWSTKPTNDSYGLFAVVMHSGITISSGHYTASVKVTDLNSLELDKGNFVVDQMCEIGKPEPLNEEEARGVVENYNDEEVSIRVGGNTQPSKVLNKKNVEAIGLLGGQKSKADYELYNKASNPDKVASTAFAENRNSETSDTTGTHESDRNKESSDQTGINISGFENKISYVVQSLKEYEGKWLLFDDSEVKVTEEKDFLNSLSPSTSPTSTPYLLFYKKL
T1 sequence (Q8TAF3 whole entry partner): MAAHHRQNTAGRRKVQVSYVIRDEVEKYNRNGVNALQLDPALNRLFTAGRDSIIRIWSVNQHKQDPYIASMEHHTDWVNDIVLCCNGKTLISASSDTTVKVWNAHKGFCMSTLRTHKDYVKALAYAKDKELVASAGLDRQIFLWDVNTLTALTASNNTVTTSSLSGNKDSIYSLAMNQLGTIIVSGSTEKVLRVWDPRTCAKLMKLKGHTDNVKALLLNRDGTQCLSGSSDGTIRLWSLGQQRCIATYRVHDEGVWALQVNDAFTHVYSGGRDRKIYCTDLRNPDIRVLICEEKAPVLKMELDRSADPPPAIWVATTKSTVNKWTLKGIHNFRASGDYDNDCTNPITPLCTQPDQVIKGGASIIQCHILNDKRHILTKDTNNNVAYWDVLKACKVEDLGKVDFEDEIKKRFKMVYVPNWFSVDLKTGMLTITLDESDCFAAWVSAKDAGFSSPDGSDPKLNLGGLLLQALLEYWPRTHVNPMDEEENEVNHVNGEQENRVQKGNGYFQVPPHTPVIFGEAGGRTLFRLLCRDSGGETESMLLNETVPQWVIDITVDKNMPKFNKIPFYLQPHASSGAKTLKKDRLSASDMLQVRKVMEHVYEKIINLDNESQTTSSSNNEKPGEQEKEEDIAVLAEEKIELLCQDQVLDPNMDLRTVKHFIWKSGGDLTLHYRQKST
Put plainly: Enzyme assay: deubiquitinase fluorometric assay with ubiquitin-Rhodamine substrate. The format is biochemical. The note with it: USP1/UAF1, Ub-Rho110 substrate, 2 hours preincubation, 1 hour reaction. The protocol:
Enzymatic inhibitory potency of the compounds was assessed in a deubiquitinase fluorometric assay using ubiquitin-Rhodamine (Ub-Rho110, R&D Systems) as substrate and the recombinant USP1/UAF1 enzyme complex (Biortus). Assays were performed in a final volume of 12 μL using black 384-well plates (Corning #4514) containing 50 mM HEPES (pH 7.5, BioRoYee), 0.5 mM EDTA, 1 mM dithiothreitol, 0.1 mg/mL bovine serum albumin, 50 nM Ub-Rhol10, 0.004 nM USP1/UAF1, and series diluted compounds from 10 μM to 0.5 nM (10 dilution steps). Assay-ready plates containing 40 nL of Echo-dispensed compound in DMSO were reconstituted with 2 μL of ddH2O, then 5 μL of USP1/UAF1 enzyme mixture was added and preincubated at room temperature for 2 hours. Enzymatic reaction was initiated by the addition of […] substrate mixture and assay allowed to proceed for 1 hour at room temperature before quenching with 3 μL of 150 mM citric acid. Fluorescence signal was detected via TECAN SPARK with excitation at 485 nm and emission at 535 nm. Data analysis was done using GraphPad Prism8 and IC50 values were obtained by 4-parameter logistic curve fitting.
Certain compounds were tested in the assays.

Series [3] is described as follows: Liver microsomal stability (HLM). The format is in vitro ADME. The note with it: human, liver microsomes, human liver microsomes 0.5 mg/mL, 1 μM compound, NADPH. For orientation: Liver microsomes are a subcellular fraction often used to study metabolism.
The test system of series [4] is HCC1806 Ub-PCNA (USP1). Put plainly: USP1 Western Blot Protocol (HCC1806 Ub-PCNA). The format is cell-based. Particulars: Homo sapiens, HCC1806 cells, 4 hours. A digest of the protocol:
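HCC1806 cells seeded overnight, then treated 4 h at 37 °C with a 5-point, 4-fold dilution series (0.1% DMSO). Lysates immunoblotted for Ub-PCNA with fluorescent detection; inhibition expressed as % vehicle from Ub-PCNA upregulation, IC50 by four-parameter logistic fit.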

A short description of series [5]: Solubility in FaSSIF (Fasted State Simulated Intestinal Fluid). The note with it: kinetic from dmso stock, FaSSIF pH 6.5, 25° C. The format is physicochemical. The method, boiled down: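 Apparent solubility measured in FaSSIF at pH 6.5 from a 10 mM DMSO stock, shaken at 25° C, 1100 RPM for 2 h and then filtered. Filtrate quantified by LC/MS/MS against a 3 μM standard with internal standard, corrected by dilution factor.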

Series [6] deals with MDA-MB-436 subcutaneous human breast cancer model. Briefly: In vivo efficacy in MDA-MB-436 subcutaneous xenograft. The note with it: NOD SCID mice, 28 days. The procedure:
Anti-tumor efficacy of USP1 inhibitors were evaluated in mice using the MDA-MB-436 subcutaneous human breast cancer model that harbors the loss-of-function BRCA1 mutation. 6-8 weeks old female NOD SCID mice from Beijing Anikeeper Biotech Co., Ltd. were inoculated subcutaneously with 1×10^7 MDA-MB-436 tumor cells. When tumors reached a size of approximately 130 mm 3 mice were randomized into group of 5 or 9 and dosed via oral gavage once or twice daily for 28 days with either vehicle (twice daily, 9 animals), one dose of USP1 inhibitor 1-107 at 150 mg/kg (twice daily, 5 animals), three doses of USP1 inhibitor I-111 at […] (once daily, 9 animals per group), or one dose of USP1 inhibitor 1-124 at 150 mg/kg (twice daily, 5 animals). Body weight and tumor volume were measured twice per week. Tumor volume (TV) was calculated as mean and standard deviation of the mean for each treatment group. The percentage tumor growth inhibition (TGI) was calculated using the formula: TGI=(RTVvehicle−RTVtreatment)*100)/(RTVvehicle −1), where RTV is the mean relative volumes (RTV=TVDay terminal[…]) of the tumors in the treatment and the vehicle groups, respectively, on a given day from Day 0-Day 28 where Day 0 is the first day of treatment.
All treatment groups were well-tolerated, with various dose levels and dosing frequency for the duration of the treatment period from day 0 to day 28 in the tumor bearing mice, as shown in FIG. 2.

For orientation: GI50 means the concentration giving 50% growth inhibition. The low end stands for more potent growth inhibition, the high end for less potent growth inhibition. The term IC50 denotes the concentration that inhibits the measured activity by half. In general, microsomal CLint refers to a measure of how fast metabolising enzymes remove a compound, apart from limits set by blood flow. A higher microsomal CLint goes with faster metabolism. In series [1], `COc1ncnc(C2CC2)c1-c1ncc2c(n1)N(Cc1ccc(-c3nc(C(F)(F)F)cn3C(C)C)cc1)C(=O)NC2` [Compound I-24] yielded a 50% growth inhibitory concentration (GI50) of 10 to 100 nM. Besides, the IC50 in series [2] and in series [4] was 10 to 100 nM throughout. This compound also returned an intrinsic metabolic clearance (microsomal CLint) at 1 μM in series [3] of at least 50 µL/min/mg.
`COc1ncnc(C2CC2)c1-c1ncc2c(n1)N(Cc1ccc(-c3nc(C(F)(F)F)cn3C(C)C)cc1)C(=O)N(C)C2` [Compound I-25] gave a GI50 in series [1] of 10 to 100 nM. Further, the IC50 in series [2] and in series [4] was 10 to 100 nM each time. The same compound gave an intrinsic metabolic clearance (microsomal CLint) at 1 μM in series [3] of at least 50 µL/min/mg.
In series [1], `COc1ncnc(C2CC2)c1-c1ncc2ccc(=O)n(Cc3ccc(-c4ncccc4OC(C)C)cc3)c2n1` [Compound I-33] came in with a GI50 of 10 to 100 nM. Also, the half-maximal inhibitory concentration (IC50) in series [2] and in series [4] was 10 to 100 nM each time. For the same compound, the microsomal CLint at 1 μM in series [3] is at least 50 µL/min/mg.
`CCn1cc(C(F)(F)F)nc1-c1ccc(Cn2c(=O)c(Br)cc3cnc(-c4c(OC)ncnc4C4CC4)nc32)cc1` [Compound I-38, 6-Bromo-2-(4-Cyclopropyl-6-Methoxypyrimidin-5-Yl)-8-({4-[1-Ethyl-4-(Trifluoromethyl)Imidazol-2-Yl]Phenyl}Methyl)Pyrido[2,3-d]Pyrimidin-7-One] registered a 50% growth inhibitory concentration (GI50) in series [1] of 10 to 100 nM. In addition, the IC50 in series [2] and in series [4] was 10 to 100 nM each time.
Consider `COc1ncnc(C2CC2)c1-c1ncc2ccc(=O)n(Cc3ccc(-c4cccc(C(F)(F)F)c4)cc3)c2n1` [Compound I-42], for which the concentration for 50% growth inhibition (GI50) in series [1] was 100 to 1000 nM. Further, the IC50 in series [2] and in series [4] was 100 to 1000 nM throughout.
Compound `CC(C)n1ncc(Cl)c1-c1ncc2ccc(=O)n(Cc3ccc(-c4nc(C(F)(F)F)cn4C)cc3)c2n1` [Compound I-44, 2-(4-Chloro-2-Isopropylpyrazol-3-Yl)-8-({4-[1-Methyl-4-(Trifluoromethyl)Imidazol-2-Yl]Phenyl}Methyl)Pyrido[2,3-d]Pyrimidin-7-One] displayed a GI50 in series [1] of 10 to 100 nM. Moreover, the IC50 in series [2] and in series [4] was 10 to 100 nM each time.
In series [1], `COc1ncnc(C)c1-c1ncc2ccc(=O)n(Cc3ccc(-c4nc(C(F)(F)F)cn4C)cc3)c2n1` [Compound I-46, 2-(4-Methoxy-6-Methylpyrimidin-5-Yl)-8-({4-[1-Methyl-4-(Trifluoromethyl)Imidazol-2-Yl]Phenyl}Methyl)Pyrido[2,3-d]Pyrimidin-7-One] came in with a 50% growth inhibitory concentration (GI50) of 100 to 1000 nM. The IC50 in series [2] and in series [4] was 100 to 1000 nM in each case.
`COc1ncnc(OC)c1-c1ncc2ccc(=O)n(Cc3ccc(-c4nc(C(F)(F)F)cn4C)cc3)c2n1` [Compound I-47, 2-(4,6-Dimethoxypyrimidin-5-Yl)-8-({4-[1-Methyl-4-(Trifluoromethyl)Imidazol-2-Yl]Phenyl}Methyl)Pyrido[2,3-d]Pyrimidin-7-One] came in with a GI50 in series [1] of 10 to 100 nM. The concentration for half-maximal inhibition (IC50) in series [2] and in series [4] was 10 to 100 nM each time.
`CCc1ncnc(OC)c1-c1ncc2ccc(=O)n(Cc3ccc(-c4nc(C(F)(F)F)cn4C)cc3)c2n1` [Compound I-48, 2-(4-Ethyl-6-Methoxypyrimidin-5-Yl)-8-({4-[1-Methyl-4-(Trifluoromethyl)Imidazol-2-Yl]Phenyl}Methyl)Pyrido[2,3-d]Pyrimidin-7-One] displayed a GI50 in series [1] of 10 to 100 nM. In addition, the half-maximal inhibitory concentration (IC50) in series [2] and in series [4] was 10 to 100 nM throughout.
Take `Cc1ncnc(C2CC2)c1-c1ncc2ccc(=O)n(Cc3ccc(-c4nc(C(F)(F)F)cn4C)cc3)c2n1` [Compound I-49, 2-(4-Cyclopropyl-6-Methylpyrimidin-5-Yl)-8-({4-[1-Methyl-4-(Trifluoromethyl)Imidazol-2-Yl]Phenyl}Methyl)Pyrido[2,3-d]Pyrimidin-7-One]: the GI50 in series [1] lay in the range of 100 to 1000 nM. For the same compound, the IC50 in series [2] lay in the range of 10 to 100 nM; in series [4], 100 to 1000 nM.
In turn, `COc1ncnc(C2CC2)c1-c1ncc2ccc(=O)n(Cc3ccc(-c4nc(C(F)(F)F)cn4C)cc3)c2c1F` [Compound I-50, 7-(4-cyclopropyl-6-methoxypyrimidin-5-yl)-8-fluoro-1-({4-[1-methyl-4-(trifluoromethyl)imidazol-2-yl]phenyl}methyl)-1,6-naphthyridin-2-one] yielded a 50% growth inhibitory concentration (GI50) in series [1] of 10 to 100 nM. Also, the half-maximal inhibitory concentration (IC50) in series [2] and in series [4] was 10 to 100 nM each time.
`COc1ncnc(C2CC2)c1-c1ncc2ccc(=O)n(Cc3ccc(-c4cncc(C(F)(F)F)n4)cc3)c2n1` [Compound I-51, 2-(4-cyclopropyl-6-methoxypyrimidin-5-yl)-8-({4-[6-(trifluoromethyl)pyrazin-2-yl]phenyl}methyl)pyrido[2,3-d]pyrimidin-7-one] registered a GI50 in series [1] of 100 to 1000 nM. The IC50 in series [2] and in series [4] was 100 to 1000 nM in each case.
What is called solubility is the concentration that dissolves in the medium under given conditions. Low readings indicate a poorly soluble substance, high ones a readily soluble substance. In series [5], `COc1ncnc(C2CC2)c1-c1ncc2cc(C3CCN(C)CC3)c(=O)n(Cc3ccc(-c4nc(C(F)(F)F)cn4C4CC4)cc3)c2n1` [Compound I-111] displayed a solubility at 2 h of at least 100 µM. Besides, the intrinsic metabolic clearance (microsomal CLint) at 1 μM in series [3] is below 10 µL/min/mg. Moreover, the “TGI (tumor growth inhibition)” value in series [6] (10 mg/kg QD oral gavage) is given as around 55%; in series [6] (30 mg/kg QD oral gavage), around 80%; in series [6] (60 mg/kg QD oral gavage), above 100%.
